Measurements taken from US5043450A, “8-alkoxyquinolonecarboxylic acid and salts thereof” (priority 1986, dated 1991).
In brackets after ≈: the same amount, converted by molar mass. Read-outs that look alike come from different tables or passages of the source.

Columns and labels:
Format in all cases: cell-based
[1] = tested on: Citrobacter freundii IID 976; assay: Antibacterial spectra, MIC
P. mirabilis IID 994 = assay: Antibacterial spectra, MIC; details: Proteus mirabilis, IID994
P. cepacia GIFU 518 = assay: Antibacterial spectra, MIC; details: Burkholderia cepacia, GIFU518
[2] = tested on: Bacteroides fragilis GM 7000; assay: Antibacterial spectra, MIC
P. aeruginosa IFO 12689 = assay: Antibacterial spectra, MIC; details: Pseudomonas aeruginosa, IFO12689
C. ramosum = assay: Antibacterial spectra, MIC; details: Thomasclavelia ramosa
[3] = tested on: Salmonella enteritidis IID 604; assay: Antibacterial spectra, MIC; details: Salmonella enterica
[4] = tested on: Pseudomonas aeruginosa V-1; assay: Antibacterial spectra, MIC
[5] = tested on: Morganella morganii IID 602; assay: Antibacterial spectra, MIC
C. perfringens KYA 13123 = assay: microbe, parasite or virus in culture; details: Clostridium perfringens, KYA13123
[6] = tested on: Klebsiella pneumoniae KY(GN)6445; assay: Antibacterial spectra, MIC
[7] = tested on: Serratia marcescens IID 618; assay: Antibacterial spectra, MIC
[8] = tested on: Peptostreptococcus anaerobius KYA 27337; assay: Antibacterial spectra, MIC; details: KYA27337
P. aeruginosa IID 1210 = assay: Antibacterial spectra, MIC; details: Pseudomonas aeruginosa, IID1210
S. epidermidis IID 866 = assay: Antibacterial spectra, MIC; details: Staphylococcus epidermidis, IID866
[9] = tested on: Veillonella parvula KYA 10790; assay: Antibacterial spectra, MIC
[10] = tested on: Yersinia enterocolitica IID 981; assay: Antibacterial spectra, MIC
B. fragilis 25285 = assay: Antibacterial spectra, MIC; details: Bacteroides fragilis
[11] = tested on: Staphylococcus aureus 209 P; assay: Antibacterial spectra, MIC
[12] = tested on: B. thetaiotaomicron (0661); assay: Antibacterial spectra, MIC; details: Bacteroides thetaiotaomicron
F. necrophorum S-45 = assay: Antibacterial spectra, MIC; details: Fusobacterium necrophorum, S45
S. aureus Smith = assay: Antibacterial spectra, MIC; details: Staphylococcus aureus
[13] = tested on: Propionibacterium acens 11828; assay: Antibacterial spectra, MIC
Bacilus subtilis PCI 219 = assay: Antibacterial spectra, MIC; details: Bacillus subtilis, PCI219
[14] = tested on: Alcaligenes faecalis 0114002; assay: Antibacterial spectra, MIC
E. coli ML 4707 = assay: Antibacterial spectra, MIC; details: Escherichia coli, ML4707; 10^6 cells/ml; Gram -
Method: (§1) The antibacterial test was carried out according to the method designated by Japan Society of Chemotherapy.

Shigella sonnei IID 969 = assay: Antibacterial spectra, MIC; details: IID969, 10^6 cells/ml, Gram -
Method: as §1

[15] = tested on: Proteus vulgaris IFO 3167; assay: Antibacterial spectra, MIC; details: IFO3167, 10^6 cells/ml, Gram -
Method: as §1

B. distasonis 8503 = assay: Antibacterial spectra, MIC; details: Parabacteroides distasonis
[16] = tested on: Clostridium difficile I-E; assay: Antibacterial spectra, MIC; details: Clostridioides difficile
[17] = tested on: S. aureus IID 670 (Terajima); assay: Antibacterial spectra, MIC; details: Staphylococcus aureus, IID670
[18] = tested on: Enterobacter cloacae IID 977; assay: Antibacterial spectra, MIC
[19] = tested on: Escherichia coli NIHJ JC-2; assay: Antibacterial spectra, MIC
[20] = tested on: Peptococcus magnus KY 017; assay: Antibacterial spectra, MIC; details: Finegoldia magna, KY017
P. maltophilia GIFU 2491 = assay: Antibacterial spectra, MIC; details: Stenotrophomonas maltophilia, GIFU2491
[21] = tested on: Acinetobacter anitratus IID 876; assay: Antibacterial spectra, MIC; details: Acinetobacter calcoaceticus, IID876
B. vulgatus KYA 29327 = assay: Antibacterial spectra, MIC; details: Phocaeicola vulgatus, KYA29327
K. pneumoniae 1-220S = assay: Antibacterial spectra, MIC; details: Klebsiella pneumoniae, 1220S
F. varium KYA 8501 = assay: Antibacterial spectra, MIC; details: Fusobacterium varium, KYA8501
B. fragilis 0558 = assay: Antibacterial spectra, MIC; details: Bacteroides fragilis
[22] = tested on: Eubacterium lentum GAI 5242; assay: Antibacterial spectra, MIC; details: Eggerthella lenta, GAI5242
E. coli ATCC 10536 = assay: Antibacterial spectra, MIC; details: Escherichia coli, ATCC10536
Pst. micros UPI 5464-1 = assay: Antibacterial spectra, MIC; details: Parvimonas micra, UPI54641
[23] = tested on: Fusobacterium mortiferum 4249; assay: Antibacterial spectra, MIC
[24] = 10^6 cells/ml, Gram -, read-out: MIC
[25] = 10^6 cells/ml, Gram +, read-out: MIC

SMILES: COc1c(N2CCNCC2)c(F)cc2c(=O)c(C(=O)O)cn(C3CC3)c12 [Exp. 1]
- MIC ([1]; IID976, 10^6 cells/ml, Gram -, read-out: MIC): 0.025 µg/mL (≈ 0.0692 µM)
- MIC (P. mirabilis IID 994; [24]): 0.025 µg/mL (≈ 0.0692 µM)
- MIC (P. cepacia GIFU 518; [24]): 0.78 µg/mL (≈ 2.16 µM)
- MIC ([2]; GM7000, 10^6 cells/ml, Gram -, read-out: MIC): 0.78 µg/mL (≈ 2.16 µM)
- MIC (P. aeruginosa IFO 12689; [24]): 0.78 µg/mL (≈ 2.16 µM)
- MIC (C. ramosum): 3.13 µg/mL (≈ 8.66 µM)
- MIC [3, 24]: 0.05 µg/mL (≈ 0.138 µM)
- MIC ([4]; V1, 10^6 cells/ml, Gram -, read-out: MIC): 0.1 µg/mL (≈ 0.277 µM)
- MIC ([5]; IID602, 10^6 cells/ml, Gram -, read-out: MIC): 0.05 µg/mL (≈ 0.138 µM)
- MIC (C. perfringens KYA 13123): 0.39 µg/mL (≈ 1.08 µM)
- MIC [6, 24]: 0.025 µg/mL (≈ 0.0692 µM)
- MIC ([7]; IID618, 10^6 cells/ml, Gram -, read-out: MIC): 0.05 µg/mL (≈ 0.138 µM)
- MIC [8]: 0.39 µg/mL (≈ 1.08 µM)
- MIC (P. aeruginosa IID 1210): 0.39 µg/mL (≈ 1.08 µM)
- MIC (S. epidermidis IID 866; [25]): 0.1 µg/mL (≈ 0.277 µM)
- MIC ([9]; KYA10790, 10^6 cells/ml, Gram -, read-out: MIC): 0.2 µg/mL (≈ 0.553 µM)
- MIC ([10]; IID981, 10^6 cells/ml, Gram -, read-out: MIC): 0.05 µg/mL (≈ 0.138 µM)
- MIC (B. fragilis 25285): 0.39 µg/mL (≈ 1.08 µM)
- MIC [11, 25]: 0.1 µg/mL (≈ 0.277 µM)
- MIC [12, 24]: 1.56 µg/mL (≈ 4.32 µM)
- MIC (F. necrophorum S-45): 0.39 µg/mL (≈ 1.08 µM)
- MIC (S. aureus Smith; [25]): 0.1 µg/mL (≈ 0.277 µM)
- MIC [13]: 3.13 µg/mL (≈ 8.66 µM)
- MIC (Bacilus subtilis PCI 219; [25]): 0.025 µg/mL (≈ 0.0692 µM)
- MIC [14, 24]: 0.2 µg/mL (≈ 0.553 µM)
- MIC (E. coli ML 4707): 0.025 µg/mL (≈ 0.0692 µM)
- MIC (Shigella sonnei IID 969): 0.0125 µg/mL (≈ 0.0346 µM)
- MIC [15]: 0.0125 µg/mL (≈ 0.0346 µM)
- MIC (B. distasonis 8503; [24]): 1.56 µg/mL (≈ 4.32 µM)
- MIC [16]: 3.13 µg/mL (≈ 8.66 µM)
- MIC [17, 25]: 0.1 µg/mL (≈ 0.277 µM)
- MIC ([18]; IID977, 10^6 cells/ml, Gram -, read-out: MIC): 0.05 µg/mL (≈ 0.138 µM)
- MIC ([19]; NIHJJC2, 10^6 cells/ml, Gram -, read-out: MIC): ≤ 0.0063 µg/mL
- MIC [20, 25]: 0.2 µg/mL (≈ 0.553 µM)
- MIC (P. maltophilia GIFU 2491): 0.39 µg/mL (≈ 1.08 µM)
- MIC [21, 24]: 0.1 µg/mL (≈ 0.277 µM)
- MIC (B. vulgatus KYA 29327; [24]): 0.78 µg/mL (≈ 2.16 µM)
- MIC (K. pneumoniae 1-220S; [24]): 0.05 µg/mL (≈ 0.138 µM)
- MIC (F. varium KYA 8501): 3.13 µg/mL (≈ 8.66 µM)
- MIC (B. fragilis 0558): 0.39 µg/mL (≈ 1.08 µM)
- MIC [22, 25]: 0.2 µg/mL (≈ 0.553 µM)
- MIC (E. coli ATCC 10536; [24]): 0.025 µg/mL (≈ 0.0692 µM)
- MIC (Pst. micros UPI 5464-1; [25]): 0.2 µg/mL (≈ 0.553 µM)
- MIC [23]: 0.39 µg/mL (≈ 1.08 µM)

SMILES: COc1c(N2CCNC(C)C2)c(F)cc2c(=O)c(C(=O)O)cn(C3CC3)c12 (stereo not shown) [Exp. 3, 1-cyclopropyl-6-fluoro-1,4-dihydro-8-methoxy-7-(3-methyl-1-piperazinyl)-4-oxo-3-quinolinecarboxylic acid]
- MIC ([1]; IID976): 0.025 µg/mL (≈ 0.0666 µM)
- MIC (P. mirabilis IID 994): 0.025 µg/mL (≈ 0.0666 µM)
- MIC (P. cepacia GIFU 518): 1.56 µg/mL (≈ 4.16 µM)
- MIC ([2]; GM7000): 0.39 µg/mL (≈ 1.04 µM)
- MIC (P. aeruginosa IFO 12689): 1.56 µg/mL (≈ 4.16 µM)
- MIC (C. ramosum): 3.13 µg/mL (≈ 8.34 µM)
- MIC [3]: 0.05 µg/mL (≈ 0.133 µM)
- MIC ([4]; V1): 0.2 µg/mL (≈ 0.533 µM)
- MIC ([5]; IID602): 0.1 µg/mL (≈ 0.266 µM)
- MIC (C. perfringens KYA 13123): 0.39 µg/mL (≈ 1.04 µM)
- MIC [6]: 0.025 µg/mL (≈ 0.0666 µM)
- MIC ([7]; IID618): 0.1 µg/mL (≈ 0.266 µM)
- MIC [8]: 0.39 µg/mL (≈ 1.04 µM)
- MIC (P. aeruginosa IID 1210): 1.56 µg/mL (≈ 4.16 µM)
- MIC (S. epidermidis IID 866): 0.1 µg/mL (≈ 0.266 µM)
- MIC ([9]; KYA10790): 0.2 µg/mL (≈ 0.533 µM)
- MIC ([10]; IID981): 0.05 µg/mL (≈ 0.133 µM)
- MIC (B. fragilis 25285): 0.39 µg/mL (≈ 1.04 µM)
- MIC [11]: 0.1 µg/mL (≈ 0.266 µM)
- MIC [12]: 0.78 µg/mL (≈ 2.08 µM)
- MIC (F. necrophorum S-45): 0.39 µg/mL (≈ 1.04 µM)
- MIC (S. aureus Smith): 0.1 µg/mL (≈ 0.266 µM)
- MIC [13]: 6.25 µg/mL (≈ 16.6 µM)
- MIC (Bacilus subtilis PCI 219): 0.025 µg/mL (≈ 0.0666 µM)
- MIC [14]: 0.39 µg/mL (≈ 1.04 µM)
- MIC (E. coli ML 4707): 0.0125 µg/mL (≈ 0.0333 µM)
- MIC (Shigella sonnei IID 969): 0.0125 µg/mL (≈ 0.0333 µM)
- MIC [15]: 0.025 µg/mL (≈ 0.0666 µM)
- MIC (B. distasonis 8503): 0.78 µg/mL (≈ 2.08 µM)
- MIC [16]: 3.13 µg/mL (≈ 8.34 µM)
- MIC [17]: 0.1 µg/mL (≈ 0.266 µM)
- MIC ([18]; IID977): 0.05 µg/mL (≈ 0.133 µM)
- MIC ([19]; NIHJJC2): ≤ 0.0063 µg/mL
- MIC [20]: 0.2 µg/mL (≈ 0.533 µM)
- MIC (P. maltophilia GIFU 2491): 0.2 µg/mL (≈ 0.533 µM)
- MIC [21]: 0.1 µg/mL (≈ 0.266 µM)
- MIC (B. vulgatus KYA 29327): 0.78 µg/mL (≈ 2.08 µM)
- MIC (K. pneumoniae 1-220S): 0.05 µg/mL (≈ 0.133 µM)
- MIC (F. varium KYA 8501): 6.25 µg/mL (≈ 16.6 µM)
- MIC (B. fragilis 0558): 0.39 µg/mL (≈ 1.04 µM)
- MIC [22]: 0.2 µg/mL (≈ 0.533 µM)
- MIC (E. coli ATCC 10536): 0.0125 µg/mL (≈ 0.0333 µM)
- MIC (Pst. micros UPI 5464-1): 0.2 µg/mL (≈ 0.533 µM)
- MIC [23]: 0.78 µg/mL (≈ 2.08 µM)
